Data published in ChEMBL document CHEMBL2016436, “X-ray crystallographic structure-based design of selective thienopyrazole inhibitors for interleukin-2-inducible tyrosine kinase” (Bioorg Med Chem Lett, 2012).

How the values were obtained:
[1] = target: T1, Tyrosine-protein kinase ITK/TSK (Homo sapiens, UniProt Q08881); experiment: Inhibition of recombinant N-terminus His6 tagged Itk (357-620) autophosphorylation expressed in insect Sf9 cells using [33P]ATP by scintillation counting
T1 sequence (Q08881 whole entry): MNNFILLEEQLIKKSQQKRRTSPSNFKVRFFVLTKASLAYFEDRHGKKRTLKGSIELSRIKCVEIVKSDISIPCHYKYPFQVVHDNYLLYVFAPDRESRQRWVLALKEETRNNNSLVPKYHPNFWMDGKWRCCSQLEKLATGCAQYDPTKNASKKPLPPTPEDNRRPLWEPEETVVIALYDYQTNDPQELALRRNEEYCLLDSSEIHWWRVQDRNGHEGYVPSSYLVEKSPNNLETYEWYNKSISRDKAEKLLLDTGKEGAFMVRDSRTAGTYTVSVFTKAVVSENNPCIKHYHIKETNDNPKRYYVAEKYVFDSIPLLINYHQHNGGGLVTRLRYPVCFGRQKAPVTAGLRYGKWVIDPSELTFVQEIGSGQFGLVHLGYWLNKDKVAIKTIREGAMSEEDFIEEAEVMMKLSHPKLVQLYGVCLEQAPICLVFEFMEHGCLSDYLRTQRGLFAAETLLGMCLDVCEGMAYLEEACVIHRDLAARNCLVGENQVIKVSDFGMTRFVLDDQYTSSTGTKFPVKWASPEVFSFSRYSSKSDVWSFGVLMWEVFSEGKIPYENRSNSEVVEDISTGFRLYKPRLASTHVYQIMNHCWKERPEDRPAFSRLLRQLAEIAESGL

[2] = target: Tyrosine-protein kinase Lck (Homo sapiens, UniProt P06239); experiment: Inhibition of Lck autophosphorylation using [33P]ATP by scintillation counting
Tyrosine-protein kinase Lck, sequence (P06239 whole entry): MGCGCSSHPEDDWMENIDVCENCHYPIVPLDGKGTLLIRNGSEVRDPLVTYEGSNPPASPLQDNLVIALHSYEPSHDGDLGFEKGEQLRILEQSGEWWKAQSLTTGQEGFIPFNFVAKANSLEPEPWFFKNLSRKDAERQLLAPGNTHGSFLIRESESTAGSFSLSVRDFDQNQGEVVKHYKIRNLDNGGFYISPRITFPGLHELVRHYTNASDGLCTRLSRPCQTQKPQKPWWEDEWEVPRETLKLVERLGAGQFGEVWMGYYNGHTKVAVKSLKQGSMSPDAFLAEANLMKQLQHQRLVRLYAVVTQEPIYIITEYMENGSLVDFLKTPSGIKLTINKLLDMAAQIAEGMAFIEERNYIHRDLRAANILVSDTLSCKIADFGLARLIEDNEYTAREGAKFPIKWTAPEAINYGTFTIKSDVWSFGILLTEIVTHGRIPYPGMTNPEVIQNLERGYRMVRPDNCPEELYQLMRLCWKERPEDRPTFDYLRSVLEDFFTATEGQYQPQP

[3] = target: T2, Tyrosine-protein kinase TXK (Homo sapiens, UniProt P42681); experiment: Inhibition of Txk autophosphorylation using [33P]ATP by scintillation counting
T2 sequence (P42681 whole entry): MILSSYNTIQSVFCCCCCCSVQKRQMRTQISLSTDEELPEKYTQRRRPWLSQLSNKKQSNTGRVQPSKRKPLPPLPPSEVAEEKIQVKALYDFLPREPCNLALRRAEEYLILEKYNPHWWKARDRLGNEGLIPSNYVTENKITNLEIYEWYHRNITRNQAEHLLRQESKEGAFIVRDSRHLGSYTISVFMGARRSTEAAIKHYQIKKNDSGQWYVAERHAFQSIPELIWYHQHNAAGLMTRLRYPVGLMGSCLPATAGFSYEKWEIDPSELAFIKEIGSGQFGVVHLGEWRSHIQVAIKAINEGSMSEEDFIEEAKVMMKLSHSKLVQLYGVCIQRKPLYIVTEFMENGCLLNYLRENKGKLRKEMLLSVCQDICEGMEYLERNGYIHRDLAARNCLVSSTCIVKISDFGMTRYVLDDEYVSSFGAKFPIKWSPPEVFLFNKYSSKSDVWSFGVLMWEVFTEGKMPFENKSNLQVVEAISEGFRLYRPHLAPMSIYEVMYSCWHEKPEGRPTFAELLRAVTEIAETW

[4] = target: Tyrosine-protein kinase SYK (Homo sapiens, UniProt P43405); experiment: Inhibition of recombinant N-terminus His6 tagged Syk (343 to 635) autophosphorylation expressed in insect Sf9 cells using [33P]ATP by scintillation counting

IC50 [1] | IC50 [2] | IC50 [3] | IC50 [4] | SMILES
200 nM |  |  |  | Oc1ccc2nc(-c3n[nH]c4ccccc34)[nH]c2c1
1.9 nM | 63.9 nM | 73.8 nM |  | CC(C)(O)c1ccc2cc(-c3n[nH]c4ccsc34)[nH]c2c1
 | 1100 nM | 66.5 nM | 186 nM | CCC(O)(CC)c1ccc2cc(-c3n[nH]c4ccsc34)[nH]c2c1
 | 162 nM | 55.7 nM | 287 nM | CCC(O)(CC)c1cc(OCCN2CCOCC2)c2cc(-c3n[nH]c4ccsc34)[nH]c2c1
 | 3180 nM | 241 nM | 939 nM | CCC(O)(CC)c1ccc2c(-c3ccc(OC)cc3)c(-c3n[nH]c4ccsc34)[nH]c2c1
 | 39.2 nM | 77.5 nM |  | CCC(O)(CC)c1ccc2cc(-c3n[nH]c4cc(C(F)F)sc34)[nH]c2c1
 | 203 nM | 441 nM | 2470 nM | CCC(O)(CC)c1ccc2cc(-c3n[nH]c4cc(-c5ccccc5)sc34)[nH]c2c1
